This passage reports IC50 results from patent US9637453B2, “3-spirocyclic-6-hydroxamic acid tetralins as HDAC inhibitors” (Forma Therapeutics, Inc., priority 2015, dated 2017).

By IC50 is commonly meant the midpoint of a concentration-inhibition curve.

Assay [1] concerns the target T1, Full length human recombinant HDAC6 (Homo sapiens, UniProt Q9UBN7).
T1 construct: Full length human recombinant HDAC6 and HDAC11 proteins were expressed in baculoviral system
T1 sequence (Q9UBN7 1-1215): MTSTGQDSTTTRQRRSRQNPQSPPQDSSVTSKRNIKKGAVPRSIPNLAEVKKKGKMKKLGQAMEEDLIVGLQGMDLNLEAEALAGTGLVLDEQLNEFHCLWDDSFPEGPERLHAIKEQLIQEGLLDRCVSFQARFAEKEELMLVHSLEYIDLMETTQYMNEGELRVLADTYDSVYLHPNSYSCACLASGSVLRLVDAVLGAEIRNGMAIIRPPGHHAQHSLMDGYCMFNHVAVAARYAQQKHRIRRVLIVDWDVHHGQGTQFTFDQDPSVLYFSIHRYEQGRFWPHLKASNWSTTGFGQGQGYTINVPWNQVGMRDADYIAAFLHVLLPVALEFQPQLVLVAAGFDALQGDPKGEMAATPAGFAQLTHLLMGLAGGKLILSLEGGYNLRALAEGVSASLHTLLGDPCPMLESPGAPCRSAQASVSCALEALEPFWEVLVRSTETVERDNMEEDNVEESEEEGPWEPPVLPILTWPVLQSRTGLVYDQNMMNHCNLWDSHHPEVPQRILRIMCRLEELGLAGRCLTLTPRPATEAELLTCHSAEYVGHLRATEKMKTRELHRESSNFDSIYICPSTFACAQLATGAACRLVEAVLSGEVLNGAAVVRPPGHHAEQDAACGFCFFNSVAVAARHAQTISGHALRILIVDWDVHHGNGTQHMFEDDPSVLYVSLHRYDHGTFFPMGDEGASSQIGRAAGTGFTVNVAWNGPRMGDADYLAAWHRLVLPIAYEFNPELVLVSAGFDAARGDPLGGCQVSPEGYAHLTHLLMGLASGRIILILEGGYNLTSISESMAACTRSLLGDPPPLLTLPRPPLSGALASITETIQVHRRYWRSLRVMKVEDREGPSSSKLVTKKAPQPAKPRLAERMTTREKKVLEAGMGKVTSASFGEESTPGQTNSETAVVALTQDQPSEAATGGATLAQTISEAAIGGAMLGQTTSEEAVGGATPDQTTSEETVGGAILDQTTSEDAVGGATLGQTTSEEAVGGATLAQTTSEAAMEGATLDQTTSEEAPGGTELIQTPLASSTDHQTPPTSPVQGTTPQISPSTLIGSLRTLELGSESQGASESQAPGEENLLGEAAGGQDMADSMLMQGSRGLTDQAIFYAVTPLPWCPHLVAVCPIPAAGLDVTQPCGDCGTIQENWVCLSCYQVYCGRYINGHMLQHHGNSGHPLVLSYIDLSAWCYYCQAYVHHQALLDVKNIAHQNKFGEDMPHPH
Description: In vitro histone deacetylase assay, enzymatic HDAC6 (electrophoretic mobility shift assay). Conditions: 1 nM HDAC6; 2 μM peptide substrate FAM-RHKK(Ac)—NH2; 25° C.; 12 concentrations; read-out: HDAC6 Activity Range (IC50). It counts as biochemical. The method, boiled down: (§1)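 Baculovirus-expressed full-length enzymes (HDAC6 1 nM, FAM-RHKK(Ac)-NH2; HDAC11 10 nM, FAM-RHKK(tri-fluor-Ac)-NH2), 2 μM substrate, HEPES pH 7.5, 25°C, 12-point 3× dilutions. Product/substrate separated by microfluidic mobility shift after SDS quench; IC50 from 4-parameter fit, reported as +/++/+++ bins.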

Assay [2] concerns the target T2, Full length human recombinant HDAC11 (Homo sapiens, UniProt Q96DB2).
T2 construct: Full length human recombinant HDAC6 and HDAC11 proteins were expressed in baculoviral system
T2 sequence (Q96DB2 1-347): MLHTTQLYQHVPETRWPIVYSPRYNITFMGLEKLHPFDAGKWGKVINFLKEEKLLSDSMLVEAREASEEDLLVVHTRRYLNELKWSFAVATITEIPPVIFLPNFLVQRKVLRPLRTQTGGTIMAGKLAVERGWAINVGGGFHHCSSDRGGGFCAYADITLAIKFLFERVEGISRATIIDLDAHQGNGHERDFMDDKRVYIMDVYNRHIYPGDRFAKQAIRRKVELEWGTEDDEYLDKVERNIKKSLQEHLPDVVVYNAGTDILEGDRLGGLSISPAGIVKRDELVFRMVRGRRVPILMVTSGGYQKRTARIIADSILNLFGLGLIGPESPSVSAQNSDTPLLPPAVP
Briefly: In vitro histone deacetylase assay, enzymatic HDAC11 (electrophoretic mobility shift assay). It counts as biochemical. Conditions: 10 nM HDAC11; 2 μM peptide substrate FAM-RHKK(tri-fluor-Ac)—NH2; 25° C.; 12 concentrations; read-out: HDAC11 Activity Range (IC50). In a few lines:
as §1
(In general: A gel shift assay detects complexes by their altered migration in electrophoresis.)

For the molecule `CCCN1CC[C@@]2(CCc3ccc(C(=O)NO)cc3C2)C1=O` [Compound I-52, (S)—N-hydroxy-2′-oxo-1′-propyl-3,4-dihydro-1H-spiro[naphthalene-2,3′-pyrrolidine]-7-carboxamide], the figures for the IC50 in assay [1] and in assay [2] were at most 0.1 µM and over 0.5 µM, respectively.

In the case of `CC(=O)N1CCC2(CCc3ccc(C(=O)NO)cc3C2)C1` (stereo not shown) [Compound I-12, 1′-acetyl-N-hydroxy-3,4-dihydro-1H-spiro[naphthalene-2,3′-pyrrolidine]-7-carboxamide], the IC50 in assay [1] is at most 0.1 µM; in assay [2] it was over 0.5 µM.

In the case of `COc1ccc(S(=O)(=O)N2CCC3(CCc4ccc(C(=O)NO)cc4O3)CC2)cc1` [II-2, N-hydroxy-1′-((4-methoxyphenyl)sulfonyl)spiro[chromane-2,4′-piperidine]-7-carboxamide], the half-maximal inhibitory concentration (IC50) in assay [1] is at most 0.1 µM; in assay [2], over 0.5 µM.

With `O=C(NO)c1ccc2c(c1)C[C@@]1(CC2)CCN(Cc2ccccc2F)C1=O` [Compound I-76, (S)-1′-(2-fluorobenzyl)-N-hydroxy-2′-oxo-3,4-dihydro-1H-spiro[naphthalene-2,3′-pyrrolidine]-7-carboxamide], the IC50 in assay [1] is at most 0.1 µM; in assay [2], over 0.5 µM.

Take `O=C(NO)c1ccc2c(c1)OC1(CC2)CCN(C(=O)C2CCCCC2)CC1` [II-5, 1′-(cyclohexanecarbonyl)-N-hydroxyspiro[chromane-2,4′-piperidine]-7-carboxamide]: the IC50 was at most 0.1 µM in assay [1] and 0.1 to 0.5 µM in assay [2].

`O=C(NO)c1ccc2c(c1)C[C@@]1(CC2)CCN(Cc2ccc(Cl)cn2)C1=O` [Compound I-39, (S)-1′-((5-chloropyridin-2-yl)methyl)-N-hydroxy-2′-oxo-3,4-dihydro-1H-spiro[naphthalene-2,3′-pyrrolidine]-7-carboxamide]: the IC50 in assay [1] is at most 0.1 µM; in assay [2], over 0.5 µM.

In the case of `O=C(NO)c1ccc2c(c1)C[C@@]1(CC2)CCN(Cc2c(Cl)cccc2Cl)C1=O` [Compound I-68, (S)-1′-(2,6-dichlorobenzyl)-N-hydroxy-2′-oxo-3,4-dihydro-1H-spiro[naphthalene-2,3′-pyrrolidine]-7-carboxamide], the values for the IC50 in assay [1] and in assay [2] were at most 0.1 µM and over 0.5 µM, respectively.

On to `O=C(NO)c1ccc2c(c1)C[C@@]1(CC2)CC(=O)N(CC(F)(F)F)C1` [Compound I-144, (S)—N-hydroxy-5′-oxo-1′-(2,2,2-trifluoroethyl)-3,4-dihydro-1H-spiro[naphthalene-2,3′-pyrrolidine]-7-carboxamide], for which the half-inhibitory concentration (IC50) in assay [1] is at most 0.1 µM; in assay [2], over 0.5 µM.
